pIC50: −log10 of the molar value.
Columns and labels:
Type in all cases: cell-based
[1] = molecular target: T1, pERK1/2 (Thr202/Tyr204), NCI-1H358 (KRAS G12C) (Homo sapiens, UniProt P01116, G12C); assay: Assay of intracellular pERK1/2 (Thr202/Tyr204) phosphorylation in NCI-H358 cells (KRAS G12C); settings: pERK1/2, 2 days, read-out: NCI-H358 (KRAS G12C) IC50
T1 construct: pERK1/2 HTRF read-out
Description: (§1) Example 2: Assay of intracellular pERK1/2 (Thr202/Tyr204)phosphorylation
(§2) 1. Reagents and materials: • pERK1/2 (Thr202/Tyr2O4) HIRE kit, Cisbio, Cat #64ERKPEH; • OptiPlate™-384-well plate, PerkinElmer, Cat #6007299; • 96-well plate, Coming, Cat #353072; • Instrument: EnVision2104, PerkinElmer; • Cell lines: NCI-1H358 (KRAS G12C), ATCC, CRL-5807; PANC-1 (KRAS G121D), ATCC, CRL-1469; NCI-1H441 (KRAS G12V), ATCC, HTB-174.
(§3) 2. Preparation of Reaction Solutions
(§4) • A test compound was dissolved in DMSO, diluted to 200.0 μM and further diluted 3-fold to prepare a series of test compounds at concentrations of 66.7, 22.2, 7.4, 2.5, 0.82, 0.27, 0.09 μM etc. Then 10 μL of the compound at different dilution concentrations was added to 190 μL of a DMEM medium to prepare a 10× test compound; • 1× cell lysis buffer: 4× cell lysis stock solution (provided by the kit) was diluted 4-fold with deionized water, and then 10% 100× blocking stock solution (provided by the kit) was added thereto. • pERK1/2 detection solution (prepared just before use): the pERK1/2 d2 antibody (provided by the kit) and pERK1/2 Cryptate antibody (provided by the kit) were diluted with the detection solution (provided by the kit) at a ratio of 1:1:38.
(§5) • Cells were inoculated into a 96-well plate (100 μL/well) at a density of 10000-12000/well. No cell was inoculated into a negative control well, and only the cell medium was added at 100 μL/well. The plate was placed in a cell incubator at 5% CO2 and 37° C. overnight. • 10 μL of the 10× test compound was added to the 100 μL cell culture 96-well plate; both the positive control well (that is, the control hole without chemical compound treatment) and the negative control well were charged with 10 μL of a 5% DMSO culture solution; and the plate was cultured in a cell incubator at 5% CO2 and 37° C. for 2 days. • The medium in the 96-well plate was removed; 50 μL of the 1× cell lysis buffer was added to each of the wells; the plate was placed in a microplate shaker; and lysis under shaking was carried out at 900 rpm at room temperature for 1 hour. • 16 μL of the lysis buffer in the 96-well plate was taken and transferred to a 384-well plate, followed by centrifugation at 1000 rpm for 30 s; then 4 μL of pERK1/2 detection solution was added to each well, followed by centrifugation at 1000 rpm for 30 s; and the 384-well plate was sealed with a sealing membrane and incubated at 25° C. on a low-speed shaker at 100 rpm in the dark for 2 hours. • The fluorescence value (RFU) of each well was detected on EnVision2104, with an emission wavelength 1 being 665 nm and an emission wavelength 2 being 615 nm.
(§6) Fluorescence ratio=fluorescence value665 nm/fluorescence value615 nm
(§7) Inhibition rate (%)=100−((fluorescence ratio of compound well−fluorescence ratio of negative control well)/(fluorescence ratio of positive control well−fluorescence ratio of negative control well))×100
(§8) wherein: • the fluorescence ratio of compound well refers to the fluorescence ratio of the well containing the test compounds; • the fluorescence ratio of negative control well refers to the fluorescence ratio of the cell-free control well; • the fluorescence ratio of positive control well refers to the fluorescence ratio of the cell well treated with 0.5% DMSO.
(§9) IC50 value: obtained by calculation using XL-Fit 5.0 software.

[2] = molecular target: T2, pERK1/2 (Thr202/Tyr204), PANC-1 (KRAS G121D) (Homo sapiens, UniProt P01116, G12D); assay: Assay of intracellular pERK1/2 (Thr202/Tyr204) phosphorylation in PANC-1 cells (KRAS G12D); settings: pERK1/2, 2 days, read-out: PANC-1 (KRAS G12D) IC50
T2 construct: pERK1/2 HTRF read-out
T2 sequence (P01116 1-188 isoform P01116-2 G12D): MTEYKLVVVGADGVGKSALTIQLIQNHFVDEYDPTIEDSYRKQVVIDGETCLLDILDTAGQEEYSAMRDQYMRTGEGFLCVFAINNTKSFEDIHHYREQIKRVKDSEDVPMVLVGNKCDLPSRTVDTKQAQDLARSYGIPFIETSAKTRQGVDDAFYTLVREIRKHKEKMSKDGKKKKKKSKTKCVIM
Description: as §1, §2, §3, §4, §5, §6, §7, §8, §9

[3] = molecular target: T3, pERK1/2 (Thr202/Tyr204), NCI-1H441 (KRAS G12V) (Homo sapiens, UniProt P01116, G12V); assay: Assay of intracellular pERK1/2 (Thr202/Tyr204) phosphorylation in NCI-H441 cells (KRAS G12V); settings: pERK1/2, 2 days, read-out: NCI-H441 (KRAS G12V) IC50
T3 construct: pERK1/2 HTRF read-out
T3 sequence (P01116 1-188 isoform P01116-2 G12V): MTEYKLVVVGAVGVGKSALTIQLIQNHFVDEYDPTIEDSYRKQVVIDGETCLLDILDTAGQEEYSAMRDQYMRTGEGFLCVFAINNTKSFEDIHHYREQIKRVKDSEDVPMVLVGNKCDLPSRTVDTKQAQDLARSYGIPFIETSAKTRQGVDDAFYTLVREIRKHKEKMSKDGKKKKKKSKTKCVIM
Description: as §1, §2, §3, §4, §5, §6, §7, §8, §9

T1 sequence (P01116 1-188 isoform P01116-2 G12C): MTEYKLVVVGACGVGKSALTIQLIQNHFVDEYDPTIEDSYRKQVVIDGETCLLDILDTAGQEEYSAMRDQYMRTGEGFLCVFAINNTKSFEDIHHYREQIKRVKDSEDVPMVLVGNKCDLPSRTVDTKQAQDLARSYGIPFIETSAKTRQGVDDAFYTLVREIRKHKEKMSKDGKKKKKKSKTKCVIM

SMILES | pIC50 [1] | pIC50 [2] | pIC50 [3]
[2H]C1([2H])CC[C@@]2(C([2H])([2H])Oc3nc4c5c(nc(-c6cc(N)cc(C)c6C(F)(F)F)c(F)c5n3)OCCN4C(C)c3cccnc3N)C[C@@H](F)CN12 (single isomer, unassigned) [Compound 115, 3-((R or S)-1-(5-(5-amino-3-methyl-2-(trifluoromethyl)phenyl)-4-fluoro-2-(((2R,7aS)-2-fluorotetrahydro-1H-pyrrolizin-7a(5H)-yl-5,5-d2)methoxy-d2)-8,9-dihydro-10H-7-oxa-1,3,6,10-tetraazacyclohepta[de]naphthalen-10-yl)ethyl)pyridin-2-amine] | 9.70 | 9.05 | 9.70
CC(c1cccnc1N)N1CCOc2nc(-c3c(C(F)(F)F)ccc4[nH]ncc34)c(F)c3nc(OC[C@@H]4CCN4CC(F)F)nc1c23 (stereo partly drawn) [Compound 25] | 8.15 | 6.23 | 7.85
CC(c1cccnc1N)N1CCOc2nc(-c3cc(O)cc(Cl)c3C3CC3)c(F)c3nc(OC[C@@H]4CC(F)(F)CN4C)nc1c23 (single isomer, unassigned) [Compound 56, 3-(10-((R or S)-1-(2-aminopyridin-3-yl)ethyl)-2-(((S)-4,4-difluoro-1-methylpyrrolidin-2-yl)methoxy)-4-fluoro-9,10-dihydro-8H-7-oxa-1,3,6,10-tetraazacyclohepta[de]naphthalen-5-yl)-5-chloro-4-cyclopropylphenol] | 8.52 | 6.87 | 8.30
Cc1cc(N)cc(-c2nc3c4c(nc(OC[C@H]5CCCN5C)nc4c2F)N(C(C)c2cccnc2N)CCO3)c1C(F)(F)F (single isomer, unassigned) [Compound 110, 3-((R or S)-1-(5-(5-amino-3-methyl-2-(trifluoromethyl)phenyl)-4-fluoro-2-(((R)-1-methylpyrrolidin-2-yl)methoxy)-8,9-dihydro-10H-7-oxa-1,3,6,10-tetraazacyclohepta[de]naphthalen-10-yl)ethyl)pyridin-2-amine] | < 7.00 | < 7.00 | < 7.00
[2H]C1([2H])CC[C@@]2(C([2H])([2H])Oc3nc4c5c(nc(-c6cc(O)cc(Cl)c6C6CC6)c(F)c5n3)OCCN4[C@H](C)c3cccnc3N)C[C@@H](F)CN12 (single isomer, unassigned) [Compound 130, 3-(10-((R or S)-1-(2-aminopyridin-3-yl)ethyl)-4-fluoro-2-(((2R,7aS)-2-fluorotetrahydro-1H-pyrrolizin-7a(5H)-yl-5,5-d2)methoxy-d2)-9,10-dihydro-8H-7-oxa-1,3,6,10-tetraazacyclohepta[de]naphthalen-5-yl)-5-chloro-4-cyclopropylphenyl] | < 7.00 | < 7.00 | < 7.00
Cc1c(F)c(N)cc(-c2nc3c4c(nc(OC[C@@]56CCC(=O)N5C[C@H](F)C6)nc4c2F)N(C(C)c2cccnc2N)CCO3)c1C(F)(F)F (stereo partly drawn) [Compound 195] | 7.48 | < 7.00 | 7.00
Cc1c(F)c(N)cc(-c2nc3c4c(nc(OC[C@]56CCCN5C[C@H](F)C6)nc4c2F)N(C(C)c2cccnc2N)CCO3)c1C(F)(F)F (stereo partly drawn) [Compound 164] | 9.70 | 8.52 | 9.52
CC(c1cccnc1N)N1CCOc2nc(-c3cc(N)cc(Cl)c3C3CC3)c(F)c3nc(OC[C@@]45CCCN4C[C@H](F)C5)nc1c23 (single isomer, unassigned) [Compound 75, 3-((R or S)-1-(5-(5-amino-3-chloro-2-cyclopropylphenyl)-4-fluoro-2-(((2R,7aS)-2-fluorotetrahydro-1H-pyrrolizin-7a(5H)-yl)methoxy)-8,9-dihydro-10H-7-oxa-1,3,6,10-tetraazacyclohepta[de]naphthalen-10-yl)ethyl)pyridin-2-amine] | 8.30 | 7.40 | 7.96
CC(c1cccnc1N)N1CCOc2nc(-c3cc(O)cc(Cl)c3C(F)(F)F)c(F)c3nc(OC[C@@]45CCCN4C[C@H](F)C5)nc1c23 (single isomer, unassigned) [Compound 58, 3-(10-((R or S)-1-(2-aminopyridin-3-yl)ethyl)-4-fluoro-2-(((2R,7aS)-2-fluorotetrahydro-1H-pyrrolizin-7a(5H)-yl)methoxy)-9,10-dihydro-8H-7-oxa-1,3,6,10-tetraazacyclohepta[de]naphthalen-5-yl)-5-chloro-4-(trifluoromethyl)phenol] | 8.52 | 6.83 | 8.30

Continued, values first:

pIC50 [1] | pIC50 [2] | pIC50 [3] | SMILES
9.05 | 9.00 | 9.00 | C#Cc1c(F)ccc2cc(O)cc(-c3nc4c5c(nc(OC[C@@]67CCCN6C[C@H](F)C7)nc5c3F)N(C(C)c3cccnc3N)CCO4)c12 (stereo partly drawn) [Compound 259]
< 7.00 | < 7.00 | < 7.00 | Cc1c(F)c(N)cc(-c2nc3c4c(nc(OC[C@@]56CCCN5C[C@H](F)C6)nc4c2F)N([C@@H](C)c2cc(F)cnc2N)[C@@H](C)CO3)c1C(F)(F)F [Compound 366]
7.43 | < 7.00 | < 7.00 | Cc1c(F)c(N)cc(-c2nc3c4c(nc(OC[C@@]56CCCN5C[C@H](F)C6)nc4c2F)N(C(C)c2cccnc2N)[C@H](C)CO3)c1C(F)(F)F (single isomer, unassigned) [Compound 255, 3-((R or S)-1-((R)-5-(5-amino-4-fluoro-3-methyl-2-(trifluoromethyl)phenyl)-4-fluoro-2-(((2R,7aS)-2-fluorotetrahydro-1H-pyrrolizin-7a(5H)-yl)methoxy)-9-methyl-8,9-dihydro-10H-7-oxa-1,3,6,10-tetraazacyclohepta[de]naphthalen-10-yl)ethyl)pyridin-2-amine]
> 9.34 | 9.15 | 9.10 | CCc1c(F)ccc2cc(O)cc(-c3nc4c5c(nc(OCC6(CN(C)C7CC7)CC6)nc5c3F)N(C(C)c3cccnc3N)[C@@H](C)CO4)c12 (stereo partly drawn) [Compound 397]
8.70 | 7.37 | 8.00 | Cc1c(F)c(N)cc(-c2nc3c4c(nc(OC[C@@]56CCCN5C[C@H](F)C6)nc4c2F)N(C(C)c2cccnc2N)C[C@H](C)O3)c1C(F)(F)F (single isomer, unassigned) [Compound 254, 3-((R or S)-1-((S)-5-(5-amino-4-fluoro-3-methyl-2-(trifluoromethyl)phenyl)-4-fluoro-2-(((2R,7aS)-2-fluorotetrahydro-1H-pyrrolizin-7a(5H)-yl)methoxy)-8-methyl-8,9-dihydro-10H-7-oxa-1,3,6,10-tetraazacyclohepta[de]naphthalen-10-yl)ethyl)pyridin-2-amine]
9.52 | 9.22 | 9.52 | Cc1c(C(F)(F)F)c(-c2nc3c4c(nc(OC[C@@]56CCCN5C[C@H](F)C6)nc4c2F)N(C(C)c2cc(F)cnc2N)[C@@H](C)CO3)c2cn[nH]c2c1F (stereo partly drawn) [Compound 368]
